Experimental data published in patent US7815946B1, “Anti-diabetic and cholesterol lowering preparation from fenugreek seeds” (priority 2001, dated 2010).

Legend:
diabetic rabbits [1] = assay: Comparison of Menthi, trigonelline and tolbutamide on glucose tolerance; assay type: in vivo, rabbit; conditions: 100 mg/kg/day for 3 days
Procedure: The antidiabetic activity of GII (Menthi) and the alkaloid trigonelline, which can be isolated from fenugreek seeds, were compared. Diabetic rabbits were administered the same dose (100 mg/kg/day) daily for 3 days. The activity of these two was also compared with a standard drug tolbutamide all at the same dosage schedule of 100 mg/Kg/day for 3 days.

[2] = reported by Mishinsky; cited from earlier work
diabetic rabbits [3] = conditions: cited from earlier work

Compound | % Decrease in Blood Glucose Level at 2.5 Hours in GTT (diabetic rabbits [1]) | hypoglycemic activity [2] | blood glucose during GTT (diabetic rabbits [3])
CCCCNC(=O)NS(=O)(=O)c1ccc(C)cc1 [Tolbutamide, tolbutamide] | 25% |  | 
C[n+]1cccc(C(=O)[O-])c1 [Trigonelline, trigonelline] | 16% | only mild and transient hypoglycemic activity | 
fenugreekine |  |  | could not lower blood glucose
